# Columns and labels:
# [1] = system: bacterial protein synthesis (aminoacylation/translation system); test: aminoacylation/translation (A/T) assay; format: biochemical; details: A/T assay, Table 1; read-out: IC50
# [2] = system: S. aureus; test: Broth microdilution MIC testing; format: cell-based, Staphylococcus aureus; details: for MIC: Staphylococcus aureus, read-out: MIC S. aureus
# [3] = system: E. coli tolC mutants; test: Broth microdilution MIC testing; format: cell-based, Escherichia coli; details: for MIC: Escherichia coli, read-out: MIC E. coli tolC; for MIC E. coli tolC: E. coli tolC mutants
# [4] = system: E. faecalis; test: Broth microdilution MIC testing; format: cell-based, Enterococcus faecalis; details: for MIC: Enterococcus faecalis, read-out: MIC E. fae; for MIC E. fae: E. faecalis
# [5] = system: M. catarrhalis; test: Broth microdilution MIC testing; format: cell-based, Moraxella catarrhalis; details: for MIC: Moraxella catarrhalis
# [6] = system: H. influenzae; test: Broth microdilution MIC testing; format: cell-based, Haemophilus influenzae; details: for MIC: Haemophilus influenzae, read-out: MIC H. flu; for MIC H. flu: H. influenzae
# [7] = system: S. pneumoniae; test: Broth microdilution MIC testing; format: cell-based, Streptococcus pneumoniae; details: for MIC: Streptococcus pneumoniae, read-out: MIC S. pneumo; for MIC S. pneumo: S. pneumoniae
# [8] = system: E. coli modified with PMBN; test: Broth microdilution MIC testing; format: cell-based, Escherichia coli; details: for MIC: Escherichia coli, read-out: MIC E. coli +PMBP; for MIC E. coli +PMBP: E. coli modified with PMBN
SMILES,IC50 [1] [µM],MIC [2] [mg/L],MIC [3] [mg/L],MIC [4] [mg/L],MIC [5] [mg/L],MIC [6] [mg/L],MIC [7] [mg/L],MIC [8] [mg/L],MIC E. fae [4] [mg/L],MIC M. cat [5] [mg/L],MIC H. flu [6] [mg/L],MIC S. pneumo [7] [mg/L],MIC S. aureus [2] [mg/L],MIC E. coli tolC [3] [mg/L],MIC E. coli +PMBP [8] [mg/L]
Oc1nc(-c2cccnc2)nc2c1CN(Cc1cccc(F)c1)CC2 [Compound 321376],> 300,> 128,> 128,,,,,,,,,,,,
Oc1nc(-c2ccncc2)nc2c1CN(Cc1cccc(F)c1)CC2 [Compound 321386],> 300,> 128,> 128,> 128,> 128,> 128,> 128,> 128,,,,,,,
COc1cccc(CN2CCc3nc(-c4ccncc4)nc(O)c3C2)c1 [Compound 321388],> 300,> 128,> 128,> 128,> 128,> 128,> 128,> 128,,,,,,,
Oc1nc(-c2ccccn2)nc2c1CN(Cc1ccc(F)cc1)CC2 [Compound 321521],2.4,128,16,16,0.5,4,16,64,,,,,,,
Oc1ccccc1CN1CCc2nc(-c3ccccn3)nc(O)c2C1 [Compound 321522],2.6,128,32,16,1,2,16,64,,,,,,,
Oc1nc(-c2ccccn2)nc2c1CN(Cc1ccccc1)CC2 [Compound 321524],2,128,16,16,1,4,16,64,,,,,,,
COc1ccccc1CN1CCc2nc(-c3ccccn3)nc(O)c2C1 [Compound 321527],1.8,> 128,64,64,2,16,32,> 128,,,,,,,
COc1ccc(CN2CCc3nc(-c4ccccn4)nc(O)c3C2)cc1 [Compound 321529],2.6,> 128,32,128,2,8,32,128,,,,,,,
COc1ccc(OC)c(CN2CCc3nc(-c4ccccn4)[nH]c(=O)c3C2)c1 [Compound 323191],> 300,,,,,,,,128,4,32,32,> 128,128,64
O=c1[nH]c(-c2ccccn2)nc2c1CN(Cc1ccccc1OCc1ccccn1)CC2 [Compound 323192],> 300,,,,,,,,128,4,64,32,> 128,128,64
C=CCOc1ccccc1CN1CCc2nc(-c3ccccn3)[nH]c(=O)c2C1 [Compound 323194],3.4,,,,,,,,64,1,8,8,64,16,16
O=c1[nH]c(-c2ccccn2)nc2c1CN(Cc1ccccc1N1CCCC1)CC2 [Compound 323195],1.5,,,,,,,,64,2,16,32,64,32,16
O=c1[nH]c(-c2ccccn2)nc2c1CN(Cc1cccc(O)c1O)CC2 [Compound 323196],1.6,,,,,,,,32,128,> 128,> 128,> 128,> 128,> 128
COc1cccc(CN2CCc3nc(-c4ccccn4)[nH]c(=O)c3C2)c1O [Compound 323197],4.4,,,,,,,,> 128,16,32,128,> 128,> 128,> 128
O=c1[nH]c(-c2ccccn2)nc2c1CN(Cc1c(F)cccc1F)CC2 [Compound 323198],2.7,,,,,,,,> 128,1,8,16,> 128,32,64
CCOc1cc2c(cc1CN1CCc3nc(-c4ccccn4)[nH]c(=O)c3C1)OCO2 [Compound 323199],1.1,,,,,,,,128,1,16,16,128,32,32
COc1ccc(CN2CCc3nc(-c4ccccn4)[nH]c(=O)c3C2)c(C)c1C [Compound 323202],4.3,,,,,,,,32,0.25,4,4,16,8,32
COc1cc(Cl)cc(CN2CCc3nc(-c4ccccn4)[nH]c(=O)c3C2)c1OC [Compound 323203],2,,,,,,,,64,1,8,4,16,8,16
Cc1cc(CN2CCc3nc(-c4ccccn4)[nH]c(=O)c3C2)cc(C)c1O [Compound 323204],2.1,,,,,,,,> 128,64,32,128,> 128,> 128,> 128
COc1cc(CN2CCc3nc(-c4ccccn4)[nH]c(=O)c3C2)cc2c1OCO2 [Compound 323205],> 300,,,,,,,,128,4,16,32,> 128,64,64
CN(C)Cc1cc(CN2CCc3nc(-c4ccccn4)[nH]c(=O)c3C2)ccc1O [Compound 323206],> 300,,,,,,,,> 128,> 128,> 128,> 128,> 128,> 128,> 128
Cc1cc2c(cc1CN1CCc3nc(-c4ccccn4)[nH]c(=O)c3C1)OCO2 [Compound 323207],> 300,,,,,,,,> 128,> 128,> 128,> 128,> 128,> 128,> 128
CCOCc1cc(CN2CCc3nc(-c4ccccn4)[nH]c(=O)c3C2)ccc1OC [Compound 323208],2.7,,,,,,,,> 128,4,64,32,> 128,64,64
COc1cc(C)c(CN2CCc3nc(-c4ccccn4)[nH]c(=O)c3C2)cc1OC [Compound 323209],1.5,,,,,,,,> 128,4,64,32,> 128,64,64
O=C(COc1ccc(CN2CCc3nc(-c4ccccn4)[nH]c(=O)c3C2)cc1)N1CCCC1 [Compound 323210],3.2,,,,,,,,> 128,> 128,> 128,> 128,> 128,> 128,> 128
O=C1CCCN1c1ccc(CN2CCc3nc(-c4ccccn4)[nH]c(=O)c3C2)cc1 [Compound 323211],1.6,,,,,,,,> 128,64,> 128,> 128,> 128,> 128,> 128
Cn1c(=O)n(C)c2cc(CN3CCc4nc(-c5ccccn5)[nH]c(=O)c4C3)ccc21 [Compound 323213],2.4,,,,,,,,> 128,> 128,> 128,> 128,> 128,> 128,> 128

# — paper PMC3353862
